Article PMC9321647, “Curcumin-Based β-Diketo Ligands for Ga^3+: Thermodynamic Investigation of Potential Metal-Based Drugs” (Pharmaceuticals, 2022)
Like-named read-outs stand apart in the source and are kept apart here. Marks after values point to notes of the source that are not given here.

Key:
[1] = tested on: HCT116 colon carcinoma cells; test: MTT cell viability assay; type: cell-based, Human; conditions: Homo sapiens, HCT-116, HCT116, 48 h of treatment, mean
Description: Human colorectal carcinoma HCT116 cells (#91091005, ECACC) were grown in an IMDM medium (Biowest) supplemented with 2 mM glutamine, 100 IU/mL penicillin, 100 μg/mL streptomycin and 10% FBS (Gibco). The cell lines were grown at 37 °C in a humidified incubator containing 5% CO2. The cells were verified to be mycoplasma-free and passaged < 3 months. The inhibition of cell proliferation was measured by colorimetric 3-(4,5-dimethylthiazol-2-yl)-2,5-diphenyltetrazolium bromide (MTT) assay. GI50 concentrations were determined using the CompuSyn software version 1.0 (ComboSyn, Inc., Paramus, NJ USA) (free download via www.combosyn.com, accessed on 30 May 2022), and statistical analyses were performed using the GraphPad PRISM software (version 6.01 for Windows, GraphPad Software, San Diego, California USA GraphPad Prism) using unpaired t-test. Data were considered to be statistically significant if p < 0.05 (*), p < 0.01 (**), p < 0.001(***) and p < 0.0001 (****).

[2] = Spectrophotometric pH titrations of ligands (protonation constants, pKa); type: physicochemical; conditions: for logβ011 overall protonation constant / logβ012 overall protonation constant / logβ013 overall protonation constant / logβ014 overall protonation constant: HypSpec, spectrophotometric data; for pKa: aqueous solution (methanol stock diluted in water); for prevailing charge form at physiological pH (7.4): pH 7.4, species distribution
Description: (§1) UV–visible spectra were recorded with a JASCO V-570 UV/Vis/NIR spectrophotometer at 298 K in the 250–600 nm spectral range employing quartz cells (1 cm optical path). To perform spectrophotometric titrations, ligands (denoted generally as L in the following) were dissolved in methanol to give a mother solution (2.50 mM), that was then diluted in water in order to obtain a final concentration of 50 μM. The metal/ligand (M:L) solutions were obtained by adding appropriate quantities of Ga(NO3)3 as methanol solutions (5–10 mM) in order to obtain the metal-to-ligand 1:1 molar ratio (L = 50 μM and V = 25 mL). For both L and M:L systems, pH (initial value of about 5) was varied by adding small amounts (<1 μL) of concentrated NaOH (4 M) up to ca. pH 11, thus to consider volume variations negligible. To evaluate the complexation ratio, constant additions of the M solution (10 µL each time, M = 10^–2 M) were dropped into the ligand solution (V = 25 mL, L = 50 μM) using a micropipette in order to reach different M:L molar ratios. A constant ionic strength (NaNO3, 0.1 M) was maintained in all experiments. Spectrophotometric investigations of iron(III) systems were performed in the same conditions; the Fe^3+ solution was freshly prepared in methanol starting from Fe(NO3)3·9H2O. The overall protonation constants (logβqr) and the overall stability constants of metal complexes (logβpqr) were evaluated from spectrophotometric data. The stability constants (βpqr), defined by the following equations:(3) pM^m++qL^l^−+rH^+⇌MpLqHr(mp−lq+r) (4) βpqr=[MpLqHr(mp−lq+r)]/[M^m+]^p·[L^l−]^q·[H^+]^r where L is the ligand in the completely dissociated form and H is proton, were refined using least-squares calculation in HypSpec. The results of least-squares calculation include the standard deviations and correlation coefficients of the refined parameters. The quantities are obtained by performing error propagation calculation from the experimental errors onto the parameters. The stability constant refinement furnishes least-squares estimates of the standard deviation, σ, of the stability constant β. The error on logβ is calculated as follows: σ(logβ) = [log(β + σ) − log(β − σ)]/2.

[3] = Spectrophotometric pH-metric titrations of Ga^3+:ligand systems (stability constants, pGa, speciation); type: physicochemical; conditions: for logK11 apparent formation constant (Ga^3+, M:L 1:1) / logK12 apparent formation constant (Ga^3+, M:L 1:2) / logK13 apparent formation constant (Ga^3+, M:L 1:3): estimated from logβMLH; for Prevailing Species (pH 5.5) / Prevailing Species (pH 7.4): Ga^3+ complex species; for Prevailing Species (pH 7.4): ** possible formation of gallium hydroxide species; for pGa (−log[Ga^3+]free): [Ga^3+]total = 1 μM, [L]total = 10 μM, pH 7.4, 25 °C
Description: as §1
Hydroxide species, such as [Ga(OH)2]^+, were taken into account for calculations. The hydrolysis constants for Ga^3+ are as follows: logβ1,1,0 = −3.93; logβ2,1,0 = −7.73; logβ3,1,0 = −12.38; logβ4,1,0 = −15.96; logβ32,13,0 = −66.3; logβ3,1,0(s) = −3.54 [43]; pGa is defined as (−log[Ga^3+]free) and is calculated at specific conditions (Ga^3+total = 1 μM, Ltotal = 10 μM, pH 7.4, 25 °C). For the calculation of the iron(III) overall stability constants, the presence of [Fe(OH)]^2+, [Fe(OH)2]^+ and [Fe(OH)3] species was taken into account.

[4] = Keto-enol/diketo tautomer amounts by 1H NMR; type: physicochemical; conditions: molar percentage, MeOD-d4, 298 K; for KE (%) amount of keto–enol form: for 2 includes KE form of the Z isomer (6%)
Description: NMR spectra were recorded by means of a Bruker Biospin FT-NMR AVANCE III HD (600 MHz) spectrometer equipped with a CryoProbe BBO H&F 5 mm in inverse detection. The nominal frequencies were 150.90 MHz for ^13C and 600.13 MHz for ^1H, respectively. For each sample, 1–5 mg were weighed and diluted up to 0.6 mL with a proper solvent in a 5 mm NMR tube; 90° pulse was calibrated for each sample, and standard NMR parameters were used to achieve quantitative results (relaxation delay, 10 s). Proton and carbon chemical shifts are given in parts per million (ppm) versus external TMS and were determined by reference to the solvent residual signals. Typical 2D homo- and heteronuclear techniques were used for assignment, i.e., ^1H,^1H COSY, ^1H,^13C HSQC, ^1H,^13C HMBC. NMR investigations of Ga^3+:L systems were performed in MeOD-d4 by adding small amounts of a Ga(NO3)3 solution (10 μL each) to 1 mM ligand solution (0.6 mL) until reaching the desired metal-to-ligand molar ratio. The complexation reaction is fast, and spectra were registered few minutes after the addition. Two-dimensional ^1H,^13C heteronuclear multiple bond correlation (HMBC) experiments (hmbcgpndqf in Bruker library) were performed via heteronuclear zero and double quantum coherence, optimized on long-range couplings (^3/4JHC = 8 Hz), with no decoupling during acquisition, and gradient pulses were used for selection. The relative percentages of the isomeric forms were estimated on the basis of the NMR data. Particularly, ^1H NMR spectra were acquired in quantitative conditions being D1 (relaxation delay) at least five times the T1 of the slowest relaxing signal of interest. The raw data were Fourier-transformed, and then the processing was performed by zero filling (SI = TD), line broadening (lb 0.3 Hz), accurate phasing and correcting the baseline. The most isolated signals were selected for integration, i.e., the vinyl protons (H-3 and H-4), and an average of the integrated area (A) of H-3 and H-4 was used for relative quantitation, according to the following equation: %Tautomeri=(A(H−3)i+(A(H−4)i)/2/∑i(A(H−3)i+(A(H−4)i)/2×100

[5] = Kinetic stability of ligands in simulated physiological conditions (UV-Vis); type: physicochemical; conditions: for Stability: percentage of the residual ligand after 4 h: PBS, pH 7.4, 37 °C in darkness; for Stability ranking (residual ligand after 4 h): rank among the 7 ligands, 1 = most stable
Description: The chemical stability of ligands and metal complexes at the M:L 1:L molar ratio at 37 °C in darkness was evaluated by UV−Vis spectroscopy as a change in absorbance in the 250−600 nm range over an overall period of 8 h. Solutions (5.0 × 10^–5 mol L^–1) of the ligands were prepared in 0.1 mol L^–1 phosphate-buffered solution (PBS) at pH 7.4. Spectra were recorded every 30 min. All profiles were linearized as the hyperbolic function defined by Equation (2), which represents an empirical model that describes drug decomposition or release well [42]:(2) t/f%=at+b where f% is the percentage of the residual compound at time t (min) referred to the starting concentration at time zero determined by reading the absorbance at λmax.

[6] = 298 K, calculated from logβ values, * = keto–enol moiety dissociation, read-out: pKa1
[7] = 298 K, calculated from logβ values, * = keto–enol moiety dissociation, read-out: pKa2
[8] = 298 K, calculated from logβ values, * = keto–enol moiety dissociation, read-out: pKa3
[9] = 298 K, calculated from logβ values, read-out: pKa4
[10] = 298 K, calculated from logβ values, * = keto–enol moiety dissociation

Row | Molecule | logβ011 overall protonation constant ([2]; 298 K) | pKa [2, 6] | log β 110 overall stability constant (Ga^3+) ([3]; 298 K, HypSpec) | log β 120 overall stability constant (Ga^3+) ([3]; 298 K, HypSpec) | log β 130 overall stability constant (Ga^3+) ([3]; 298 K, HypSpec) | logK11 apparent formation constant (Ga^3+, M:L 1:1) ([3]; 298 K) | logK12 apparent formation constant (Ga^3+, M:L 1:2) ([3]; 298 K) | logK13 apparent formation constant (Ga^3+, M:L 1:3) ([3]; 298 K) | Prevailing Species (pH 5.5) [3] | Prevailing Species (pH 7.4) [3] | pGa (−log[Ga^3+]free) [3] | KK (%) amount of diketo form [4] | KE (%) amount of keto–enol form [4] | Stability: percentage of the residual ligand after 4 h [5] | Stability ranking (residual ligand after 4 h) [5] | logβ012 overall protonation constant ([2]; 298 K) | logβ013 overall protonation constant ([2]; 298 K) | logβ014 overall protonation constant ([2]; 298 K) | pKa [2, 7] | pKa [2, 8] | also measured
1 | COc1cc(/C=C/C(=O)CC(=O)/C=C/c2ccc(O)c(OC)c2)ccc1O [CUR, Curcumin] | – | – | – | – | – | – | – | – | – | – | – | – | – | – | – | – | – | – | – | – | GI50 [1]: 12.9 µM
2 | COc1cc(/C=C/C(O)=C/C(C)=O)ccc1OCCCBr [Compound 2, (3Z,5E)-6-[4-(3-bromopropoxy)-3-methoxyphenyl]-4-hydroxyhexa-3,5-dien-2-one] | 10.903 (8) | 10.9 | 8.129 (9) | 15.185 (4) | 20.45 (3) | 8.129 (9) | 15.185 | 20.45 | [Ga(L)3] | [Ga(L)3] | 13.1 | 12% | 88 * % | 83% | 1 | – | – | – | – | – | –
3 | O=C(O)CCC(C(=O)/C=C/c1ccc(O)cc1)C(=O)/C=C/c1ccc(O)cc1 [Compound 6, (6E)-7-(4-hydroxyphenyl)-4-[(2E)-3-(4-hydroxyphenyl)prop-2-enoyl]-5-oxohept-6-enoic acid] | 11.42 (2) | ~5 | – | – | – | 6.67 | – | – | – | – | 14.0 | 75% | 25% | 73% | 4 | 21.12 (6) | 29.76 (7) | 34.62 (5) | 8.64 | 9.7 | pKa [2, 9]: 11.4; prevailing charge form at physiological pH (7.4) [2]: negatively charged; log β 112 overall stability constant (Ga^3+) ([3]; 298 K, HypSpec): 27.79 (5); log β 113 overall stability constant (Ga^3+) ([3]; 298 K, HypSpec): 34.09 (5)

Second part, led by results:

Row | logβ011 overall protonation constant ([2]; 298 K) | pKa [2, 6] | log β 110 overall stability constant (Ga^3+) ([3]; 298 K, HypSpec) | log β 120 overall stability constant (Ga^3+) ([3]; 298 K, HypSpec) | log β 130 overall stability constant (Ga^3+) ([3]; 298 K, HypSpec) | logK11 apparent formation constant (Ga^3+, M:L 1:1) ([3]; 298 K) | logK12 apparent formation constant (Ga^3+, M:L 1:2) ([3]; 298 K) | logK13 apparent formation constant (Ga^3+, M:L 1:3) ([3]; 298 K) | Prevailing Species (pH 5.5) [3] | Prevailing Species (pH 7.4) [3] | pGa (−log[Ga^3+]free) [3] | KK (%) amount of diketo form [4] | KE (%) amount of keto–enol form [4] | Stability: percentage of the residual ligand after 4 h [5] | Stability ranking (residual ligand after 4 h) [5] | logβ012 overall protonation constant ([2]; 298 K) | logβ013 overall protonation constant ([2]; 298 K) | logβ014 overall protonation constant ([2]; 298 K) | pKa [2, 7] | pKa [2, 8] | Molecule | also measured
4 | 12.22 (2) | ~5 | – | – | – | 6.68 | – | – | [Ga(H2L)2]^+ | [Ga(H2L)2]^+ ** | 15.3 | 75% | 25% | 79% | 2 | 21.61 (5) | 29.98 (4) | 34.92 (9) | 8.37 | 9.39 | COc1cc(/C=C/C(=O)C(CCC(=O)O)C(=O)/C=C/c2ccc(O)c(OC)c2)ccc1O [Compound 7, (6E)-7-(3-methoxy-4-hydroxyphenyl)-4-[(2E)-3-(3-methoxy-4-hydroxyphenyl)prop-2-enoyl]-5-oxohept-6-enoic acid] | pKa [2, 9]: 12.2; prevailing charge form at physiological pH (7.4) [2]: negatively charged; log β 112 overall stability constant (Ga^3+) ([3]; 298 K, HypSpec): 28.29 (5); log β 113 overall stability constant (Ga^3+) ([3]; 298 K, HypSpec): 36.51 (6)
5 | 10.212 (2) | – | 11.78 (4) | 20.30 (5) | 28.37 (7) | 7.38 (3) | 14.35 (3) | 19.1 (4) | [Ga(HL)3] | [Ga(L)3]^3− | 19.0 | 4% | 96% | 77% | 3 | 18.509 (3) | – | – | – | – | (3Z,5E)-4-hydroxy-6-(3-methoxy-4-methylphenyl)hexa-3,5-dien-2-one [Compound 1] | pKa1 [2, 10]: 8.297 (5); pKa2 [2, 10]: 10.212 (2) *; log β 111 overall stability constant (Ga^3+) ([3]; 298 K, HypSpec): 17.59 (3); log β 122 overall stability constant (Ga^3+) ([3]; 298 K, HypSpec): 34.77(3); log β 133 overall stability constant (Ga^3+) ([3]; 298 K, HypSpec): 49.7 (4)
